Experimental data taken from ChEMBL document CHEMBL4130388, “Recent advances of pyrazole-containing derivatives as anti-tubercular agents” (Eur J Med Chem, 2017).
Converted amounts (≈) assume the structure as drawn.

Assays:
[1] = test system: Mycobacterium tuberculosis; assay: Antitubercular activity against Mycobacterium tuberculosis H37Rv by Lowensteine-Jensen method; type: functional
[2] = test system: Mycobacterium tuberculosis; assay: Antitubercular activity against Mycobacterium tuberculosis H37Rv; type: functional
[3] = test system: Mycobacterium tuberculosis; assay: Growth inhibition of Mycobacterium tuberculosis H37Rv at 62.5 ug/ml by broth dilution method relative to control; type: functional; settings: read-out: GI
[4] = molecular target: T1, Pantothenate synthetase (Mycobacterium tuberculosis, UniProt P9WIL5); assay: Inhibition of Mycobacterium tuberculosis pantothenate synthetase
T1 sequence (P9WIL5 whole entry): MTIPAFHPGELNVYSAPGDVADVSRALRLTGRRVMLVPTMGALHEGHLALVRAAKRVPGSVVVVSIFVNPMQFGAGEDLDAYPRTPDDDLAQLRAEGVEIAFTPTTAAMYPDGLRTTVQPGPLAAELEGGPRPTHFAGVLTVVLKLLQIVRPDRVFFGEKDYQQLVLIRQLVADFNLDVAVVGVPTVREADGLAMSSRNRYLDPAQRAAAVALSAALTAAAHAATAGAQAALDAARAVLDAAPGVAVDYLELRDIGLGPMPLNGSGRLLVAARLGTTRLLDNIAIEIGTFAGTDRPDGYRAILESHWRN

[5] = test system: Mycobacterium tuberculosis; assay: Antitubercular activity against Mycobacterium tuberculosis spec.192; type: functional
[6] = test system: Mycobacterium tuberculosis; assay: Antitubercular activity against Mycobacterium tuberculosis spec.210; type: functional
[7] = test system: Mycobacterium tuberculosis; assay: Growth inhibition of Mycobacterium tuberculosis H37Rv ATCC 27294 at 6.25 ug/ml by BACTEC radiometric method relative to control; type: functional; settings: read-out: GI
[8] = test system: Mycobacterium tuberculosis; assay: Antitubercular activity against Mycobacterium tuberculosis H37Rv ATCC 27294 at 6.25 ug/ml by BACTEC radiometric method relative to control; type: functional
[9] = test system: Mycobacterium tuberculosis; assay: Antitubercular activity against Mycobacterium tuberculosis; type: functional
[10] = test system: Mycobacterium tuberculosis; assay: Potency index, ratio of pyrazinamide MIC to compound MIC for Mycobacterium tuberculosis; type: functional
[11] = test system: Mycobacterium tuberculosis; assay: Potency index, ratio of pyrazinamide MIC to compound MIC for Mycobacterium tuberculosis H37Rv; type: functional
[12] = test system: Mycobacterium tuberculosis; assay: Antitubercular activity against Mycobacterium tuberculosis H37Rv by broth dilution method; type: functional

Row | Structure (SMILES) | MIC [1] [µg/mL] | MIC [2] | MIC [5] [µM] | MIC [6] [µM] | other results
1 | Cc1cccc(C2C(Cl)C(=O)N2C(=O)NCCCn2ncc3ccc([N+](=O)[O-])cc32)c1 (centres undefined) | 6.25 to 50 (≈ 14.1 to 113 µM) |  |  |  | 
2 | COC(=O)C1=C(C)NC(C)=C(C(=O)OC)C1c1cn(-c2ccccc2)nc1-c1ccc([N+](=O)[O-])cc1 |  | 0.02 µg/mL |  |  | 
3 | COc1cccc(C2C(Cl)C(=O)N2C(=O)NCCCn2ncc3ccc([N+](=O)[O-])cc32)c1 (centres undefined) | 6.25 to 50 (≈ 13.7 to 109 µM) |  |  |  | 
4 | Cc1nn(-c2ccccc2)c2c1C(c1cccc([N+](=O)[O-])c1)c1c(nc[nH]c1=O)O2 (centres undefined) |  |  |  |  | inhibition of growth at 62.5 µg/mL [3]: 98%
5 | COc1ccc(-n2cc(Cn3ncc4c3CCN(C(=O)Nc3ccccc3)C4)nn2)cc1 |  | 24.7 µM | 24.7 (≈ 10.6 µg/mL) | 24.7 (≈ 10.6 µg/mL) | IC50 [4]: 1010 nM
6 | COc1nc2ccc(Br)cc2c2c1C(C)(OCC(O)Cn1ccc(-c3ccc(C)c(C)c3)n1)c1ccccc1-2 (centres undefined) |  |  |  |  | inhibition of growth at 6.25 µg/mL [7]: 40 to 88%; MIC99 [8]: 5 µM (≈ 2.92 µg/mL)
7 | O=C(Nc1ccccc1)N1CCc2c(cnn2Cc2cn(-c3ccc(Br)cc3)nn2)C1 |  | 24.7 to 200 µM | 24.7 to 200 (≈ 11.8 to 95.7 µg/mL) | 24.7 to 200 (≈ 11.8 to 95.7 µg/mL) | 
8 | O=C(Nc1ccccc1)N1CCc2c(cnn2Cc2cn(-c3ccccc3F)nn2)C1 |  | 24.7 to 200 µM | 24.7 to 200 (≈ 10.3 to 83.5 µg/mL) | 24.7 to 200 (≈ 10.3 to 83.5 µg/mL) | 
9 | COc1cccc(-n2cc(Cn3ncc4c3CCN(C(=O)Nc3ccccc3)C4)nn2)c1 |  | 24.7 to 200 µM | 24.7 to 200 (≈ 10.6 to 85.9 µg/mL) | 24.7 to 200 (≈ 10.6 to 85.9 µg/mL) | 
10 | O=C(NCCCn1ncc2ccc([N+](=O)[O-])cc21)N1C(=O)C(Cl)C1c1cccc(O)c1 (centres undefined) | 6.25 to 50 (≈ 14.1 to 113 µM) |  |  |  | 
11 | O=C(NCCCn1ncc2ccc([N+](=O)[O-])cc21)N1C(=O)C(Cl)C1c1ccccc1Br (centres undefined) | 6.25 to 50 (≈ 12.3 to 98.7 µM) |  |  |  | 
12 | O=C(NCCCn1ncc2ccc([N+](=O)[O-])cc21)N1C(=O)C(Cl)C1c1ccc(Cl)cc1 (centres undefined) | 6.25 (≈ 13.5 µM) |  |  |  | 
13 | O=C(Nc1ccccc1)N1CCc2c(cnn2Cc2cn(-c3cc(Cl)cc(Cl)c3)nn2)C1 |  | 24.7 to 200 µM | 24.7 to 200 (≈ 11.6 to 93.7 µg/mL) | 24.7 to 200 (≈ 11.6 to 93.7 µg/mL) | 
14 | Cc1ccc(C2C(Cl)C(=O)N2C(=O)NCCCn2ncc3ccc([N+](=O)[O-])cc32)cc1 (centres undefined) | 6.25 to 50 (≈ 14.1 to 113 µM) |  |  |  | 
15 | N#Cc1ccc(-c2nnc(-c3n[nH]cc3-c3ccc(Cl)cc3)o2)cc1 |  |  |  |  | MIC [9]: 25 µg/mL (≈ 71.9 µM); Ratio [10]: 4
16 | Cc1cc(-n2nc(C(=O)NCC(F)(F)F)cc2-c2cccnc2)c2cccc(C(F)(F)F)c2n1 |  | 3.13 µg/mL |  |  | Ratio [11]: 16

Row | Structure (SMILES) | MIC [1] [µg/mL] | MIC [2] | MIC [5] [µM] | MIC [6] [µM] | other results
17 | O=C(Nc1ccccc1)N1CCc2c(cnn2Cc2cn(-c3ccc(OC(F)(F)F)cc3)nn2)C1 |  | 24.7 to 200 µM | 24.7 to 200 (≈ 12 to 96.7 µg/mL) | 24.7 to 200 (≈ 12 to 96.7 µg/mL) | 
18 | O=C(Nc1ccccc1)N1CCc2c(cnn2Cc2cn(-c3ccc(Cl)c(Cl)c3)nn2)C1 |  | 24.7 to 200 µM | 24.7 to 200 (≈ 11.6 to 93.7 µg/mL) | 24.7 to 200 (≈ 11.6 to 93.7 µg/mL) | 
19 | O=C(NCCCn1ncc2ccc([N+](=O)[O-])cc21)N1C(=O)C(Cl)C1c1ccccc1O (centres undefined) | 6.25 to 50 (≈ 14.1 to 113 µM) |  |  |  | 
20 | O=C(Nc1ccccc1)N1CCc2c(cnn2Cc2cn(-c3ccccc3[N+](=O)[O-])nn2)C1 |  | 24.7 to 200 µM | 24.7 to 200 (≈ 11 to 88.9 µg/mL) | 24.7 to 200 (≈ 11 to 88.9 µg/mL) | 
21 | O=C(NCCCn1ncc2ccc([N+](=O)[O-])cc21)N1C(=O)C(Cl)C1c1ccccc1Cl (centres undefined) | 6.25 to 50 (≈ 13.5 to 108 µM) |  |  |  | 
22 | CCc1ccc(-n2cc(Cn3ncc4c3CCN(C(=O)Nc3ccccc3)C4)nn2)cc1 |  | 24.7 to 200 µM | 24.7 to 200 (≈ 10.6 to 85.5 µg/mL) | 24.7 to 200 (≈ 10.6 to 85.5 µg/mL) | 
23 | O=C(Nc1ccccc1)N1CCc2c(cnn2Cc2cn(-c3ccc(F)c(F)c3)nn2)C1 |  | 24.7 to 200 µM | 24.7 to 200 (≈ 10.8 to 87.1 µg/mL) | 24.7 to 200 (≈ 10.8 to 87.1 µg/mL) | 
24 | Cc1ccc(-n2cc(Cn3ncc4c3CCN(C(=O)Nc3ccccc3)C4)nn2)cc1C |  | 24.7 to 200 µM | 24.7 to 200 (≈ 10.6 to 85.5 µg/mL) | 24.7 to 200 (≈ 10.6 to 85.5 µg/mL) | 
25 | Cc1ccccc1C1C(Cl)C(=O)N1C(=O)NCCCn1ncc2ccc([N+](=O)[O-])cc21 (centres undefined) | 6.25 to 50 (≈ 14.1 to 113 µM) |  |  |  | 
26 | CCOC(=O)C1=C(C)NC(C)=C(C(=O)OCC)C1c1cn(-c2ccccc2)nc1-c1ccc(F)cc1 |  | 0.02 µg/mL |  |  | 
27 | O=C(NCCCn1ncc2ccc([N+](=O)[O-])cc21)N1C(=O)C(Cl)C1c1cccc([N+](=O)[O-])c1 (centres undefined) | 6.25 to 50 (≈ 13.2 to 106 µM) |  |  |  | 
28 | CCOC(=O)C1=C(C)NC(C)=C(C(=O)OCC)C1c1cn(-c2ccccc2)nc1-c1ccc(Br)cc1 |  | 0.02 µg/mL |  |  | 
29 | CC[C@@H](CO)NCCN[C@@H](CC)CO [ETHAMBUTOL] | 0.2 to 4 (≈ 0.979 to 19.6 µM) | 3.13 µg/mL |  |  | 
30 | NNC(=O)c1ccncc1 [ISONIAZID] | 0.2 to 4 (≈ 1.46 to 29.2 µM) | 0.03 µg/mL |  |  | MIC99 [8]: 1.86 µM (≈ 0.255 µg/mL); MIC [12]: 0.03 µg/mL (≈ 0.219 µM)
31 | NC(=O)c1cnccn1 [PYRAZINAMIDE] | 0.2 to 4 (≈ 1.62 to 32.5 µM) | 50 µg/mL |  |  | MIC [9]: 100 µg/mL (≈ 812 µM)
32 | CO[C@H]1/C=C/O[C@@]2(C)Oc3c(C)c(O)c4c(O)c(c(/C=N/N5CCN(C)CC5)c(O)c4c3C2=O)NC(=O)/C(C)=C\C=C\[C@H](C)[C@H](O)[C@@H](C)[C@@H](O)[C@@H](C)[C@H](OC(C)=O)[C@@H]1C [RIFAMPIN] | 0.2 to 4 (≈ 0.243 to 4.86 µM) |  |  |  | 
